According to patent publication US12600724B2, “Indole alkaloid and preparation method and use thereof” (NANJING UNIVERSITY OF CHINESE MEDICINE, priority 2022, dated 2026):

Test system: primary DRG neuron
Assay: Axon growth of primary DRG neurons (immunofluorescence, Neuro J)
Format: cell-based, C57BL/6J mice
Settings: 24 hours; for fold induction at 10 µM: Mus musculus, multiple of total axon length of a single DRG neuron relative to blank control group; for Promotion of axon growth of the primary DRG neuron compared with the positive drug (in words): 10 μm
Experimental: Diabetic peripheral neuropathy involved a sensory neuron first, and a main pathological change was axonal atrophy and degeneration, or even disappearance. […] Therefore, the compounds in the examples were added with the primary DRG neuron to incubate for a certain period of time, then the axon growth of the DRG neuron was detected by immunofluorescence, and an axon length was quantified by Neuro J, so as to evaluate the promotion effect of the compound on the axon growth of the peripheral sensory neuron.
Primary antibodies of mice anti-β-tubulin III used for fluorescent staining were purchased from Sigma Company, cell culture reagents were all purchased from Gibco Company, and DRG neuronal cells were taken from C57BL/6J mice. Specific experimental steps were as follows: fresh DRG of the C57 mice was extracted to digest into a single-cell suspension and then inoculated into a culture plate for adherent culture overnight, with vinblastine as a positive drug, the to-be-detected compounds S1 to S87 ([…]) synthesized in the above examples were given to incubate for 24 hours, then an original culture medium was removed, 4% paraformaldehyde was added into each well to fix for 15 minutes after PBS washing, the mixture was permeabilized with 0.3% TritonX-100 for 5 minutes and sealed at room temperature with 4% BSA for 1 hour, a primary antibody (1:1000) was incubated at 4° C. overnight, a goat anti-mouse fluorescent secondary antibody (1:300) was incubated at room temperature in the dark for 1 hour, and a sealed slide was imaged by a fluorescence microscope (Leica). According to the image, a total axon length of a single DRG neuron was tracked by a Neuro J plug-in in Image J software, and a multiple of the total axon length relative to that of the blank control group was calculated.

Row | SMILES | fold induction at 10 µM | Promotion of axon growth of the primary DRG neuron compared with the positive drug (in words)
1 | CC[C@@]12C=C(C(=O)NCC(=O)OCCOCCOC)n3c4c(c5ccccc53)CCN(CCC1)[C@H]42 [Compound S1] | 9.7 | 
2 | CC[C@@]12C=C(C(=O)NCC(=O)OCCOCCOCCOC)n3c4c(c5ccccc53)CCN(CCC1)[C@H]42 [Compound S2] | 9.5 | 
3 | CC[C@@]12C=C(C(=O)NCC(=O)OCCOCCOCCOCCOC)n3c4c(c5ccccc53)CCN(CCC1)[C@H]42 [Compound S3] | 13.2 | more outstanding effect
4 | CC[C@@]12C=C(C(=O)NCC(=O)OCCOCCOCCOCCOCCOC)n3c4c(c5ccccc53)CCN(CCC1)[C@H]42 [Compound S4] | 11.5 | 
5 | CC[C@@]12C=C(C(=O)N[C@@H](CC(C)C)C(=O)OCCOCCOCCOCCOC)n3c4c(c5ccccc53)CCN(CCC1)[C@H]42 [Compound S13] | 11.6 | 
6 | CC[C@@]12C=C(C(=O)N[C@@H](Cc3ccccc3)C(=O)OCCOCCOCCOCCOC)n3c4c(c5ccccc53)CCN(CCC1)[C@H]42 [Compound S14] | 10.5 | 
7 | CC[C@@]12C=C(C(=O)N[C@@H](CO)C(=O)OCCOCCOCCOCCOC)n3c4c(c5ccccc53)CCN(CCC1)[C@H]42 [Compound S15] | 11.3 | 
8 | CC[C@@]12C=C(C(=O)N[C@@H](CC(N)=O)C(=O)OCCOCCOCCOCCOC)n3c4c(c5ccccc53)CCN(CCC1)[C@H]42 [Compound S16] | 11.2 | 
9 | CC[C@@]12C=C(C(=O)NCC(=O)OCCO)n3c4c(c5ccccc53)CCN(CCC1)[C@H]42 [Compound S23] | 10.3 | 
10 | CC[C@@]12C=C(C(=O)NCC(=O)OCCOCCO)n3c4c(c5ccccc53)CCN(CCC1)[C@H]42 [Compound S24] | 11.7 | 
11 | CC[C@@]12C=C(C(=O)NCC(=O)OCCOCCOCCO)n3c4c(c5ccccc53)CCN(CCC1)[C@H]42 [Compound S25] | 12.3 | 
12 | CC[C@@]12C=C(C(=O)NCC(=O)OCCOCCOCCOCCOCCO)n3c4c(c5ccccc53)CCN(CCC1)[C@H]42 [Compound S27] | 12.9 | more outstanding effect
13 | CC[C@@]12C=C(C(=O)NCC(=O)OCCOCCOCCOCCOCCOCCO)n3c4c(c5ccccc53)CCN(CCC1)[C@H]42 [Compound S28] | 12.2 | 
14 | CC[C@@]12C=C(C(=O)N[C@@H](C)C(=O)OCCOCCOCCOCCO)n3c4c(c5ccccc53)CCN(CCC1)[C@H]42 [Compound S29] | 12.5 | 
15 | CC[C@@]12C=C(C(=O)N[C@H](C(=O)OCCOCCOCCOCCO)C(C)C)n3c4c(c5ccccc53)CCN(CCC1)[C@H]42 [Compound S30] | 12.6 | 
16 | CC[C@@]12C=C(C(=O)N[C@@H](CC(C)C)C(=O)OCCOCCOCCOCCO)n3c4c(c5ccccc53)CCN(CCC1)[C@H]42 [Compound S31] | 11.8 | 
17 | CCC(C)[C@H](NC(=O)C1=C[C@]2(CC)CCCN3CCc4c(n1c1ccccc41)[C@@H]32)C(=O)OCCOCCOCCOCCO (stereo partly shown) [Compound S32] | 12.3 | 
18 | CC[C@@]12C=C(C(=O)N[C@@H](Cc3ccccc3)C(=O)OCCOCCOCCOCCO)n3c4c(c5ccccc53)CCN(CCC1)[C@H]42 [Compound S33] | 10.9 | 
19 | CC[C@@]12C=C(C(=O)N[C@@H](CO)C(=O)OCCOCCOCCOCCO)n3c4c(c5ccccc53)CCN(CCC1)[C@H]42 [Compound S34] | 10.5 | 
20 | CC[C@@]12C=C(C(=O)N[C@H](C(=O)OCCOCCOCCOCCO)C(C)O)n3c4c(c5ccccc53)CCN(CCC1)[C@H]42 (stereo partly shown) [Compound S35] | 12.1 | 
21 | CC[C@@]12C=C(C(=O)N[C@@H](CCC(N)=O)C(=O)OCCOCCOCCOCCO)n3c4c(c5ccccc53)CCN(CCC1)[C@H]42 [Compound S36] | 11.7 | 
22 | CC[C@@]12C=C(C(=O)N[C@@H](Cc3cc4ccccc4[nH]3)C(=O)OCCOCCOCCOCCO)n3c4c(c5ccccc53)CCN(CCC1)[C@H]42 [Compound S37] | 10.8 | 
23 | CC[C@@]12C=C(C(=O)N[C@@H](CN)C(=O)OCCOCCOCCOCCO)n3c4c(c5ccccc53)CCN(CCC1)[C@H]42 [Compound S39] | 11.2 | 
24 | CC[C@@]12C=C(C(=O)N[C@@H](CCCCN)C(=O)OCCOCCOCCOCCO)n3c4c(c5ccccc53)CCN(CCC1)[C@H]42 [Compound S40] | 11.4 | 
25 | CC[C@@]12C=C(C(=O)N[C@@H](CC(N)=O)C(=O)OCCOCCOCCOCCO)n3c4c(c5ccccc53)CCN(CCC1)[C@H]42 [Compound S41] | 11 | 
26 | CC[C@@]12C=C(C(=O)N[C@@H](CC(=O)O)C(=O)OCCOCCOCCOCCO)n3c4c(c5ccccc53)CCN(CCC1)[C@H]42 [Compound S42] | 10.3 | 

Row | SMILES | fold induction at 10 µM | Promotion of axon growth of the primary DRG neuron compared with the positive drug (in words)
27 | CC[C@@]12C=C(C(=O)N[C@@H](CCC(=O)O)C(=O)OCCOCCOCCOCCO)n3c4c(c5ccccc53)CCN(CCC1)[C@H]42 [Compound S43] | 11.2 | 
28 | CC[C@@]12C=C(C(=O)N[C@@H](Cc3ccc(O)cc3)C(=O)OCCOCCOCCOCCO)n3c4c(c5ccccc53)CCN(CCC1)[C@H]42 [Compound S44] | 9.9 | 
29 | CC[C@@]12C=C(C(=O)N[C@@H](Cc3c[nH]cn3)C(=O)OCCOCCOCCOCCO)n3c4c(c5ccccc53)CCN(CCC1)[C@H]42 [Compound S45] | 10.5 | 
30 | CC[C@@]12C=C(C(=O)N[C@@H](CS)C(=O)OCCOCCOCCOCCO)n3c4c(c5ccccc53)CCN(CCC1)[C@H]42 [Compound S46] | 10.7 | 
31 | CC[C@@]12C=C(C(=O)NCC(=O)N[C@@H](C)C(=O)OCCOCCOCCO)n3c4c(c5ccccc53)CCN(CCC1)[C@H]42 [Compound S47] | 11.2 | 
32 | CC[C@@]12C=C(C(=O)NCC(=O)N[C@@H](CO)C(=O)OCCOCCOCCOCCO)n3c4c(c5ccccc53)CCN(CCC1)[C@H]42 [Compound S48] | 11.4 | 
33 | CC[C@@]12C=C(C(=O)NCC(=O)N[C@@H](CC(N)=O)C(=O)OCCOCCOCCOCCO)n3c4c(c5ccccc53)CCN(CCC1)[C@H]42 [Compound S49] | 12 | 
34 | CC[C@@]12C=C(C(=O)NCC(=O)N[C@@H](CC(=O)O)C(=O)OCCOCCOCCOCCO)n3c4c(c5ccccc53)CCN(CCC1)[C@H]42 [Compound S50] | 11.3 | 
35 | CC[C@@]12C=C(C(=O)NCC(=O)N[C@@H](CC(C)C)C(=O)OCCOCCOCCOCCO)n3c4c(c5ccccc53)CCN(CCC1)[C@H]42 [Compound S51] | 9.8 | 
36 | CC[C@@]12C=C(C(=O)NCC(=O)N[C@H](C(=O)OCCOCCOCCOCCO)C(C)O)n3c4c(c5ccccc53)CCN(CCC1)[C@H]42 (stereo partly shown) [Compound S52] | 9.5 | 
37 | CC[C@@]12C=C(C(=O)OCCC(=O)OCCO)n3c4c(c5ccccc53)CCN(CCC1)[C@H]42 [Compound S53] | 9.9 | 
38 | CC[C@@]12C=C(C(=O)OCCC(=O)OCCOCCO)n3c4c(c5ccccc53)CCN(CCC1)[C@H]42 [Compound S56] | 11.3 | 
39 | CC[C@@]12C=C(C(=O)OCCC(=O)OCCOCCOCCO)n3c4c(c5ccccc53)CCN(CCC1)[C@H]42 [Compound S57] | 10.8 | 
40 | CC[C@@]12C=C(C(=O)OCCC(=O)OCCOCCOCCOCCO)n3c4c(c5ccccc53)CCN(CCC1)[C@H]42 [Compound S58] | 11.4 | 
41 | CC[C@@]12C=C(C(=O)OCCC(=O)OCCOCCOCCOCCOCCO)n3c4c(c5ccccc53)CCN(CCC1)[C@H]42 [Compound S59] | 10.6 | 
42 | CC[C@@]12C=C(C(=O)OCCC(=O)OCCOCCOCCOCCOCCOCCO)n3c4c(c5ccccc53)CCN(CCC1)[C@H]42 [Compound S60] | 12 | 
43 | CC[C@@]12C=C(C(=O)OCCCC(=O)OCCOCCOCCOCCO)n3c4c(c5ccccc53)CCN(CCC1)[C@H]42 [Compound S61] | 11.3 | 
44 | CC[C@@]12C=C(C(=O)OCCCC(=O)OCCOCCOCCOCCOCCOCCO)n3c4c(c5ccccc53)CCN(CCC1)[C@H]42 [Compound S62] | 12.8 | more outstanding effect
45 | CC[C@@]12C=C(C(=O)N(C)CC(=O)OCCOCCOCCOCCO)n3c4c(c5ccccc53)CCN(CCC1)[C@H]42 [Compound S63] | 10.9 | 
46 | CC[C@@]12C=C(C(=O)N(CC(=O)OCCOCCOCCOCCO)C3CC3)n3c4c(c5ccccc53)CCN(CCC1)[C@H]42 [Compound S64] | 11.3 | 
47 | CC[C@@]12C=C(C(=O)NCCNC(=O)OCCOCCOCCOCCO)n3c4c(c5ccccc53)CCN(CCC1)[C@H]42 [Compound S65] | 11 | 
48 | CC[C@@]12C=C(C(=O)NCC(=O)O)n3c4c(c5ccccc53)CCN(CCC1)[C@H]42 [Compound S66] | 12.8 | more outstanding effect
49 | CC[C@@]12C=C(C(=O)N[C@@H](CC(C)C)C(=O)O)n3c4c(c5ccccc53)CCN(CCC1)[C@H]42 [Compound S67] | 11.3 | 
50 | CC[C@@]12C=C(C(=O)N[C@@H](CO)C(=O)O)n3c4c(c5ccccc53)CCN(CCC1)[C@H]42 [Compound S68] | 11 | 
51 | CC[C@@]12C=C(C(=O)N[C@H](C(=O)O)C(C)O)n3c4c(c5ccccc53)CCN(CCC1)[C@H]42 (stereo partly shown) [Compound S69] | 12.3 | 
